Target: T1, PRMT5/MEP50 (Homo sapiens, UniProt O14744)
T1 construct: Flag-PRMT5; 6His-MEP50
Experiment: PRMT5 Biochemical Assay (PRMT5/MEP50 enzyme assay on peptide substrate, 3H-SAM Flashplate)
Excerpt: General Materials. S-adenosylmethionine (SAM), S-adenosylhomocysteine (SAH), bicine, KCl, Tween20, dimethylsulfoxide (DMSO), bovine skin gelatin (BSG), and Tris(2-carboxyethyl)phosphine hydrochloride solution (TCEP) were purchased from Sigma-Aldrich at the highest level of purity possible. ^3H-SAM was purchase from American Radiolabeled Chemicals with a specific activity of 80 Ci/mmol. 384-well streptavidin Flashplates were purchased from PerkinElmer.
Substrates. Peptide representative of human histone H4 residues 1-15 was synthesized with a C-terminal linker-affinity tag motif and a C-terminal amide cap by 21st Century Biochemicals. The peptide was high high-perfomance liquid chromatography (HPLC) purified to greater than 95% purity and confirmed by liquid chromatography mass spectrometry (LC-MS). The sequence was Ac-[…][K-Biot]-amide (SEQ ID NO.:3).
Molecular Biology: Full-length human PRMT5 (NM_006109.3) transcript variant 1 clone was amplified from a fetal brain cDNA library, incorporating flanking 5′ sequence encoding a FLAG tag ([…]) (SEQ ID NO.:4) fused directly to Ala 2 of PRMT5. Full-length human MEP50 (NM_024102) clone was amplified from a human testis cDNA library incorporating a 5′ sequence encoding a 6-histidine tag (MHHHHHH) (SEQ ID NO.:5) fused directly to Arg 2 of MEP50. The amplified genes were sublconed into pENTR/D/TEV (Life Technologies) and subsequently transferred by Gateway™ attL×attR recombination to pDEST8 baculvirus expression vector (Life Technologies).
Protein Expression. Recombinant baculovirus and Baculovirus-Infected Insect Cells (BIIC) were generated according to Bac-to-Bac kit instructions (Life Technologies) and Wasilko, 2006, respectively. Protein over-expression was accomplished by infecting exponentially growing Spodoptera frugiperda (SF9) cell culture at 1.2×10^6cell/ml with a 5000 fold dilution of BIIC stock. Infections were carried out at 27° C. for 72 hours, harvested by centrifugation, and stored at −80° C. for purification.
Protein Purification. […] Flag-PRMT5/6His-MeP50 was eluted with 300 mM Imidazole in the same buffer. The purity of recovered protein was 87%. Reference: Wasilko, D. J. and S. E. Lee: “TIPS: titerless infected-cells preservation and scale-up” Bioprocess J., 5 (2006), pp. 29-32.
General Procedure for PRMT5/MEP50 Enzyme Assays on Peptide Substrates. The assays were all performed in a buffer consisting of 20 mM Bicine (pH=7.6), 1 mM TCEP, 0.005% BSG, and 0.002% Tween20, prepared on the day of use. Compounds in 100% DMSO (1 ul) were spotted into a polypropylene 384-well V-bottom plates (Greiner) using a Platemate Plus outfitted with a 384-channel head (Thermo Scientific). DMSO (1 ul) was added to Columns 11, 12, 23, 24, rows A-H for the maximum signal control and 1 ul of SAH, a known product and inhibitor of PRMT5/MEP50, was added to columns 11, 12, 23, 24, rows I-P for the minimum signal control. A cocktail (40 ul) containing the PRMT5/MEP50 enzyme and the peptide was added by Multidrop Combi (Thermo-Fisher). The compounds were allowed to incubate with PRMT5/MEP50 for 30 min at 25 degrees Celsius, then a cocktail (10 ul) containing ^3H-SAM was added to initiate the reaction (final volume=51 ul). The final concentrations of the components were as follows: PRMT5/MEP50 was 4 nM, ^3H-SAM was 75 nM, peptide was 40 nM, SAH in the minimum signal control wells was 100 uM, and the DMSO concentration was […]. The assays were stopped by the addition of non-radioactive SAM (10 ul) to a final concentration of 600 uM, which dilutes the ^3H-SAM to a level where its incorporation into the peptide substrate is no longer detectable. 50 ul of the reaction in the 384-well polypropylene plate was then transferred to a 384-well Flashplate and the biotinylated peptides were allowed to bind to the streptavidin surface for at least 1 hour before being washed three times with 0.1% Tween20 in a Biotek ELx405 plate washer. […]

T1 sequence (O14744 with tags, fused parts or gaps): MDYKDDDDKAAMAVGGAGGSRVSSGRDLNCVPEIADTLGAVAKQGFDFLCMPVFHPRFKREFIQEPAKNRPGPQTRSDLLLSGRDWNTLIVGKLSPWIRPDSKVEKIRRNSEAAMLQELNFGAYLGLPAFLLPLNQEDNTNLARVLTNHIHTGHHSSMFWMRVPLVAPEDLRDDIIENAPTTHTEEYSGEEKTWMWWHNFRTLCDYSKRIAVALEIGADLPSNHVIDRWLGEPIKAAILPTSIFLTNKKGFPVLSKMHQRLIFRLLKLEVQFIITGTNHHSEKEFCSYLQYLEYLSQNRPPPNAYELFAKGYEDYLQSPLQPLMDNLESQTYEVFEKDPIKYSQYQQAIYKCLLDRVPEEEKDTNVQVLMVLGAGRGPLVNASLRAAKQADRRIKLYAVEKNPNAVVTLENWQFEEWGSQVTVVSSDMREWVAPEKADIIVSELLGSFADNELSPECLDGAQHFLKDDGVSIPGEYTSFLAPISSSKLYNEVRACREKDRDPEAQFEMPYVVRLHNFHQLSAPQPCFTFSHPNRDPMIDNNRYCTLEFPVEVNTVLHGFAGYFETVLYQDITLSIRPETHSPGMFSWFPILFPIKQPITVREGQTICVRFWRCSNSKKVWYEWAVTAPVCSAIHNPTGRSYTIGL
T1 sequence (Q9BQA1 with tags, fused parts or gaps partner): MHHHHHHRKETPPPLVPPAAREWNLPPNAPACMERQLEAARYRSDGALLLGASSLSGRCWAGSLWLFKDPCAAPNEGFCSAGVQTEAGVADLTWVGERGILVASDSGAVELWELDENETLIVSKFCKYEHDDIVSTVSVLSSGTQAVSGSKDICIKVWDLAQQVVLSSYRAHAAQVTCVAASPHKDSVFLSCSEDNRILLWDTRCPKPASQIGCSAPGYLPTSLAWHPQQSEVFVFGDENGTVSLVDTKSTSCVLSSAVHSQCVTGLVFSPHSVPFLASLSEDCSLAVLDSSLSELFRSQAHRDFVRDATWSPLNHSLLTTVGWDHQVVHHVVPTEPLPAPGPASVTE

SMILES | IC50
OC(COc1cccc(CNC2CCCC2)c1)CN1CCc2ccccc2C1 (centres unmarked) [Compound 1] | 101 to 1000 nM
OC(COC1CCCN(c2ccccc2)C1)CN1CCc2ccccc2C1 (centres unmarked) [Compound 2] | 1000 to 10000 nM
OC(COc1ccc(OCC(O)CN2CCc3ccccc3C2)cc1)CN1CCc2ccccc2C1 (centres unmarked) [Compound 3] | 101 to 1000 nM
OC(COc1cccc(CNC2CCCCC2)c1)CN1CCc2ccccc2C1 (centres unmarked) [Compound 4] | 101 to 1000 nM
OC(COc1cccc(CNC2CCOCC2)c1)CN1CCc2ccccc2C1 (centres unmarked) [Compound 5, 1-(3,4-dihydroisoquinolin-2(1H)-yl)-3-(3-(((tetrahydro-2H-pyran-4-yl)amino)methyl)phenoxy)propan-2-ol] | 101 to 1000 nM
OC(COc1cccc(CNc2cc[nH]n2)c1)CN1CCc2ccccc2C1 (centres unmarked) [Compound 6, 1-(3-(((1H-pyrazol-3-yl)amino)methyl)phenoxy)-3-(3,4-dihydroisoquinolin-2(1H)-yl)propan-2-ol] | 101 to 1000 nM
OC(COc1ccccc1N1CCNCC1)CN1CCc2ccccc2C1 (centres unmarked) [Compound 7] | 10000 to 40000 nM
OC(COc1ccccc1C1CCCCC1)CN1CCc2ccccc2C1 (centres unmarked) [Compound 8] | 1000 to 10000 nM
OC(COc1ccc(-n2cncn2)cc1)CN1CCc2ccccc2C1 (centres unmarked) [Compound 9] | 1000 to 10000 nM
OC(COc1ccc(Cc2ccccc2)cc1)CN1CCc2ccccc2C1 (centres unmarked) [Compound 10] | 101 to 1000 nM
OC(COCc1cc(-c2ccc(Cl)cc2)no1)CN1CCc2ccccc2C1 (centres unmarked) [Compound 11] | 101 to 1000 nM
OC(COCc1ccc(OCc2ccccc2)cc1)CN1CCc2ccccc2C1 (centres unmarked) [Compound 12] | 1000 to 10000 nM
OC(COc1cccc(CNC2CCNCC2)c1)CN1CCc2ccccc2C1 (centres unmarked) [Compound 13] | 1000 to 10000 nM
OC(COc1cccc(CN2CCCCC2)c1)CN1CCc2ccccc2C1 (centres unmarked) [Compound 14] | 1000 to 10000 nM
OC(COc1cccc2ccc(N3CCOCC3)nc12)CN1CCc2ccccc2C1 (centres unmarked) [Compound 15] | 1000 to 10000 nM
OC(COc1ccccc1-c1ccno1)CN1CCc2ccccc2C1 (centres unmarked) [Compound 16] | 1000 to 10000 nM
Cc1cc(OCC(O)CN2CCc3ccccc3C2)c(C)cc1CN1CCOCC1 (centres unmarked) [Compound 17] | 101 to 1000 nM
O=S1(=O)CCN(c2ccc(OCC(O)CN3CCc4ccccc4C3)cc2)CC1 (centres unmarked) [Compound 18] | 1000 to 10000 nM
OC(COc1ccc(OCc2ccccc2)cc1)CN1CCc2ccccc2C1 (centres unmarked) [Compound 19] | 1000 to 10000 nM
OC(COc1cccc(OCc2ccccc2)c1)CN1CCc2ccccc2C1 (centres unmarked) [Compound 20] | 1000 to 10000 nM
OC(COC1CCN(Cc2ccccc2)CC1)CN1CCc2ccccc2C1 (centres unmarked) [Compound 21] | 1000 to 10000 nM
CN(Cc1ccc(OCC(O)CN2CCc3ccccc3C2)cc1)C1CCCC1 (centres unmarked) [Compound 24] | 1000 to 10000 nM
OC(COc1ccc(C2CCNCC2)cc1)CN1CCc2ccccc2C1 (centres unmarked) [Compound 25] | 1000 to 10000 nM
CC(C)n1nccc1-c1ccc(OCC(O)CN2CCc3ccccc3C2)cc1 (centres unmarked) [Compound 26] | 10000 to 40000 nM
CC(C)n1ccc(-c2ccc(OCC(O)CN3CCc4ccccc4C3)cc2)n1 (centres unmarked) [Compound 27] | 1000 to 10000 nM
Cc1nn(-c2ccccc2)c(C)c1COCC(O)CN1CCc2ccccc2C1 (centres unmarked) [Compound 28] | 1000 to 10000 nM
COc1cccc2c1CN(CC(O)COc1cccc(CNC3CCCC3)c1)CC2 (centres unmarked) [Compound 29] | 10000 to 40000 nM
O=C(c1ccc(Cn2nccc2-c2ccc(OCC(O)CN3CCc4ccccc4C3)cc2)cc1)N1CCCC1 (centres unmarked) [Compound 31, (4-((5-(4-(3-(3,4-dihydroisoquinolin-2(1H)-yl)-2-hydroxypropoxy)phenyl)-1H-pyrazol-1-yl)methyl)phenyl)(pyrrolidin-1-yl)methanone] | 101 to 1000 nM
COC(COc1cccc(CNC2CCCC2)c1)CN1CCc2ccccc2C1 (centres unmarked) [Compound 32] | 1000 to 10000 nM

Next, values leading:

IC50 | SMILES
1000 to 10000 nM | CC(C(O)COc1cccc(CNC2CCCC2)c1)N1CCc2ccccc2C1 (centres unmarked) [Compound 33]
1000 to 10000 nM | O=C(c1ccc(Cn2ccc(-c3ccc(OCC(O)CN4CCc5ccccc5C4)cc3)n2)cc1)N1CCCC1 (centres unmarked) [Compound 34]
1000 to 10000 nM | OC(COC1CCN(Cc2ccccc2)C1)CN1CCc2ccccc2C1 (centres unmarked) [Compound 35]
10000 to 40000 nM | OC(CCc1cccc(CNC2CCCC2)c1)CN1CCc2ccccc2C1 (centres unmarked) [Compound 36]
101 to 1000 nM | OC(CNc1cccc(CNC2CCCC2)c1)CN1CCc2ccccc2C1 (centres unmarked) [Compound 39, 1-((3-((cyclopentylamino)methyl)phenyl)amino)-3-(3,4-dihydroisoquinolin-2(1H)-yl)propan-2-ol]
1000 to 10000 nM | OC(COc1cccc(-c2cccnc2)c1)CN1CCc2ccccc2C1 (centres unmarked) [Compound 40]
101 to 1000 nM | OC(COc1cccc(-c2ccccc2)c1)CN1CCc2ccccc2C1 (centres unmarked) [Compound 43, 1-([1,1′-biphenyl]-3-yloxy)-3-(3,4-dihydroisoquinolin-2(1H)-yl) propan-2-ol]
1000 to 10000 nM | Cn1cc(-c2cccc(OCC(O)CN3CCc4ccccc4C3)c2)cn1 (centres unmarked) [Compound 44]
1000 to 10000 nM | OC(COCc1ccc(CN2CCOCC2)cc1)CN1CCc2ccccc2C1 (centres unmarked) [Compound 46]
1000 to 10000 nM | OC(COc1ccc(-c2ccn[nH]2)cc1)CN1CCc2ccccc2C1 (centres unmarked) [Compound 48]
101 to 1000 nM | CC(Oc1cccc(CNC2CCCC2)c1)C(O)CN1CCc2ccccc2C1 (centres unmarked) [Compound 49]
1000 to 10000 nM | CC1c2ccccc2CCN1CC(O)COc1cccc(CNC2CCCC2)c1 (centres unmarked) [Compound 50]
1000 to 10000 nM | OC(COc1cccc(C2CCCCC2)c1)CN1CCc2ccccc2C1 (centres unmarked) [Compound 52]
101 to 1000 nM | CN(CC(O)CN1CCc2ccccc2C1)c1cccc(CNC2CCCC2)c1 (centres unmarked) [Compound 53]
1000 to 10000 nM | OC(COc1cccc(-c2cccc(Oc3ccccc3)c2)c1)CN1CCc2ccccc2C1 (centres unmarked) [Compound 55]
1000 to 10000 nM | OC(COc1cccc(C2=CCCCC2)c1)CN1CCc2ccccc2C1 (centres unmarked) [Compound 57]
101 to 1000 nM | Cn1cnc2cc(-c3cccc(OCC(O)CN4CCc5ccccc5C4)c3)ccc21 (centres unmarked) [Compound 60, 1-(3,4-dihydroisoquinolin-2(1H)-yl)-3-(3-(1-methyl-1H-benzo[d]imidazol-5-yl)phenoxy)propan-2-ol]
101 to 1000 nM | OC(COc1cccc(-c2cc(C(F)(F)F)ccc2Cl)c1)CN1CCc2ccccc2C1 (centres unmarked) [Compound 62, 1-((2′-chloro-5′-(trifluoromethyl)-[1,1′-biphenyl]-3-yl)oxy)-3-(3,4-dihydroisoquinolin-2(1H)-yl)propan-2-ol]
101 to 1000 nM | CS(=O)(=O)c1ccc(-c2cccc(OCC(O)CN3CCc4ccccc4C3)c2)cc1 (centres unmarked) [Compound 63]
1000 to 10000 nM | COc1ccc(Cl)c(-c2cccc(OCC(O)CN3CCc4ccccc4C3)c2)c1 (centres unmarked) [Compound 64]
101 to 1000 nM | Cn1cnc2ccc(N3CCCC(OCC(O)CN4CCc5ccccc5C4)C3)cc21 (centres unmarked) [Compound 66]
101 to 1000 nM | CC(=O)c1cccc(-c2cccc(OCC(O)CN3CCc4ccccc4C3)c2)c1 (centres unmarked) [Compound 67]
1000 to 10000 nM | OC(COc1cccc(-c2ccc(Cl)cc2)c1)CN1CCc2ccccc2C1 (centres unmarked) [Compound 69]
1000 to 10000 nM | Oc1ccc(-c2cccc(OCC(O)CN3CCc4ccccc4C3)c2)cc1F (centres unmarked) [Compound 70]
1000 to 10000 nM | COc1ccccc1-c1cccc(OCC(O)CN2CCc3ccccc3C2)c1 (centres unmarked) [Compound 71]
101 to 1000 nM | OCc1cccc(-c2cccc(OCC(O)CN3CCc4ccccc4C3)c2)c1 (centres unmarked) [Compound 72, 1-(3,4-dihydroisoquinolin-2(1H)-yl)-3-((3′-(hydroxymethyl)-[1,1′-biphenyl]-3-yl)oxy)propan-2-ol]
1000 to 10000 nM | OCc1ccc(-c2cccc(OCC(O)CN3CCc4ccccc4C3)c2)cc1 (centres unmarked) [Compound 73]

— patent US20180298010A1, “PRMT5 INHIBITORS AND USES THEREOF” (Epizyme, Inc., priority 2012, published 2018)
